According to article PMC4135079 (Journal of pharmacological and toxicological methods, 2013):

Columns and labels:
[1] = human Thorough-QT study; ref Gintant, 2011; cited from earlier work
hERG [2] = settings: read-out: hERG IC50; ref FDA pharmacology review (022068s000_PharmR_P1.pdf); cited from earlier work
hERG [3] = target: hERG (Homo sapiens, UniProt Q12809)
hERG, sequence (Q12809 whole entry): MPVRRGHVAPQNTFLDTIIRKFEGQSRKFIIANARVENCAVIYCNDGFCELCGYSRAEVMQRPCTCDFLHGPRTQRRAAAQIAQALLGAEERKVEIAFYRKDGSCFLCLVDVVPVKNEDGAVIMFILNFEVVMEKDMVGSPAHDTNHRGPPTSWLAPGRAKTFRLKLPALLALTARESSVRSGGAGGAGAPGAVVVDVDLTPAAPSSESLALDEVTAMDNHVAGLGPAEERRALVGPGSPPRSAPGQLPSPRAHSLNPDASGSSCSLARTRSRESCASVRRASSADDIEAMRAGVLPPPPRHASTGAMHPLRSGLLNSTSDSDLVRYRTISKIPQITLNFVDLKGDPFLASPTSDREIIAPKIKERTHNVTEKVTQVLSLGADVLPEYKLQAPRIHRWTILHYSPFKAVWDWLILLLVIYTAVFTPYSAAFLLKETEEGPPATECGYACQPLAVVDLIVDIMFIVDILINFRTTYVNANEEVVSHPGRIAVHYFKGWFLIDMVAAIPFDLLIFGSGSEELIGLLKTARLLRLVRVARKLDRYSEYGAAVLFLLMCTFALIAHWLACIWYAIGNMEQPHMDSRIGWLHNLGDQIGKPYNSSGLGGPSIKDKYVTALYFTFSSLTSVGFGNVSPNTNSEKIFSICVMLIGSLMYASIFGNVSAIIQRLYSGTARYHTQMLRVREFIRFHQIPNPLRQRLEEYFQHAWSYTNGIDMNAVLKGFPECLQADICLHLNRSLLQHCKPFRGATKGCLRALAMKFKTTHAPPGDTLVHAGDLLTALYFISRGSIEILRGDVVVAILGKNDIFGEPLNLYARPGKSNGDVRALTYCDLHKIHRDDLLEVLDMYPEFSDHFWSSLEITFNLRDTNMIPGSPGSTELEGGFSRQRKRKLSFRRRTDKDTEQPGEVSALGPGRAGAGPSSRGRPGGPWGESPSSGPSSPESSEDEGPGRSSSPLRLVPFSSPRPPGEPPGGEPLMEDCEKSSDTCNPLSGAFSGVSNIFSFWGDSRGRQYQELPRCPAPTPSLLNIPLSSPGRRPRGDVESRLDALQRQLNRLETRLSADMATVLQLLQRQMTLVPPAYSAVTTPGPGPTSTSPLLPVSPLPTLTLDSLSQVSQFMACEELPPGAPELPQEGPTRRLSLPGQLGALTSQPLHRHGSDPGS

Row | SMILES | QTc prolongation observed in the TQT study [1] [ms] | IC50 (hERG [2]) [nM] | Hill Log-logistic α (hERG [3])
1 | Cc1cn(-c2cc(NC(=O)c3ccc(C)c(Nc4nccc(-c5cccnc5)n4)c3)cc(C(F)(F)F)c2)cn1 [Nilotinib] | 15.8 | […] | 
2 | O=c1[nH]c2ccccc2n1C1CCN(CCCC(c2ccc(F)cc2)c2ccc(F)cc2)CC1 [Pimozide] |  |  | 1.586
3 | O=C(CCCN1CCC(O)(c2ccc(Cl)cc2)CC1)c1ccc(F)cc1 [Haloperidol] |  |  | 1.469
4 | COc1cc2nc(N(C)CCCNC(=O)C3CCCO3)nc(N)c2cc1OC (centres unmarked) [Alfuzosin] | 7.7 |  | 
